The source of these data is patent US3959519A, “Fortification of food materials with a methionine source” (priority 1975, dated 1976).

Data set [1] has as its system Leuconostoc mesenteroides P-60. Put plainly: L-methionine bioavailability from dipeptides by turbidimetric growth response of a methionine-requiring bacterial mutant. It counts as cell-based. The following applies: for utilization as a source of L-methionine by L. mesenteroides P-60: 17 hours of incubation at 37°C.; for L-Methionine Response / L-Methionine, % of Theoretical: 17 hours, 37°C. The text has this: The utilization of methionine-containing peptide can be shown, for example, in animal feeding tests. However, the formation of free methionine can also be shown directly in tests with a microorganism requiring methionine for its growth and reproduction. The following Example describes a quantitative test involving a known bacterial mutant.
Leuconostoc mesenteroides P-60 was the bacterial mutant used to assess the biological availability of L-methionine in glycyl-D,L-methionine, glycyl-L-methionine and L-methionylglycine. This mutant is unable to synthesize methionine and therefore requires an external source of this amino acid.
Under aseptic conditions, a substrate devoid of L-methionine was supplemented with graded amounts of glycyl-D,L-methionine, glycyl-L-methionine, and L-methionylglycine and then inoculated with a drop of a washed L. mesenteroides P-60 culture. After 17 hours of incubation at 37°C., the growth of L. mesenteroides P-60 in each of the culture tubes was measured turbidimetrically, at a wavelength of […]. Based on the growth response of this mutant to a similar treatment with a standard L-methionine solution of known concentration, the L-methionine response, if any, to the candidate peptides was evaluated.

A short description of data set [2]: Chick feeding test, body weight and feed efficiency on fortified corn-soy rations. It counts as in vivo, cockerels (Barred Rock males x Rhode Island females). To be noted: for difference between responses from methionine and glycylmethionine supplemented rations: 0.15% D,L-methionine vs 0.2% glycyl-D,L-methionine; for feed efficiencies / growth: corn-soy poultry ration with 0.15% D,L-methionine or 0.2% glycyl-D,L-methionine. The text has this:
For this test, cockerels are produced from a cross of Barred Rock males and Rhode Island females. All the 150 cockerels are selected on the basis that their weight differs no more than 2 grams. The birds are maintained on an all vegetable protein corn-soy basal diet for a 2-week preliminary period. At the end of this period, a median group of 90 birds is selected on the basis of weight, and they are then evenly distributed into three experimental groups, which in turn are placed on the experimental rations (Table 2). The level of glycyl-D,L-methionine in Diet No. 3 is equivalent to the level of D,L-methionine in Diet No. 2, on the basis of L-methioninecontent. The birds are weighed weekly and their feed consumption also determined weekly, to permit weekly feed efficiency evaluations. […] | -- -- 92 g.

Data set [3] is described as follows: Odor development on storage in sealed containers. Format: physicochemical. To be noted: recrystallized sample, sealed container, twenty-nine days at 45°C. The protocol: Samples of virtually odorless, recrystallized D,L-methionine, glycyl-D,L-methionine, and D,L-alanyl-D,L-methionine were stored in sealed containers for twenty-nine days at 45°C.
The mark [4] stands for this setting: level tested 6 μg./tube, calculated L-methionine equivalence 4.0 μg.
Where [5] appears, read: level tested 12 μg./tube, calculated L-methionine equivalence 4.0 μg. (glycyl-D,L-methionine) or 8.0 μg. (L-dipeptides).
The mark [6] stands for this setting: level tested 24 μg./tube, calculated L-methionine equivalence 8.0 μg.

Where a SMILES comes first, the peptide text is derived from it.

Regarding `CSCC[C@H](N)C(=O)NCC(=O)O` [L-Methionylglycine, L-methionylglycine] (H-Met-Gly-OH), the “utilization as a source of L-methionine by L. mesenteroides P-60” value (from here on “utilization … by L. mesenteroides P-60”) in data set [1] is “can utilize”. In addition, the entries for the “L-Methionine Response” value in data set [1] (setting [4]) and in data set [1] (setting [5]) were 4.0 µg and 7.5 µg, respectively. Moreover, the “L-Methionine, % of Theoretical” value is listed as 100% in data set [1] (setting [4]) and 94% in data set [1] (setting [5]).
For `CSCC[C@H](NC(=O)CN)C(=O)O` [Glycyl-L-Methionine, glycyl-L-methionine], the “utilization … by L. mesenteroides P-60” value in data set [1] is listed as “can utilize”. Moreover, in data set [1] (setting [4]), the “L-Methionine Response” value is 4.5 µg and the “L-Methionine, % of Theoretical” value is reported as 112%. Besides, in data set [1] (setting [5]), the “L-Methionine Response” value was 7.8 µg and the “L-Methionine, % of Theoretical” value is 97%.
In the case of `CSCCC(NC(=O)CN)C(=O)O` (racemic) [Glycyl-D,L-Methionine, glycyl-D,L-methionine], the “utilization … by L. mesenteroides P-60” value in data set [1] is listed as “can utilize”. In addition, in data set [1] (setting [5]), the “L-Methionine Response” value was 3.5 µg and the “L-Methionine, % of Theoretical” value is recorded as 88%. Moreover, in data set [1] (setting [6]), the “L-Methionine Response” value was 7.5 µg and the “L-Methionine, % of Theoretical” value is listed as 94%. Moreover, in data set [2], the “difference between responses from methionine and glycylmethionine supplemented rations” value is “No significant difference”; the feed efficiencies entry was “improved feed efficiencies”; the growth result is given as “significant growth increases”. Moreover, the odor after storage result in data set [3] is given as “still virtually odor-free”.
For `CSCCC(NC(=O)C(C)N)C(=O)O` (mixture of isomers) [D,L-alanyl-D,L-methionine], the odor after storage result in data set [3] is “developed a typical sulfurous odor”.
For `CSCCC(N)C(=O)O` (racemic) [D,L-Methionine, D,L-methionine, reference compound], in data set [2], the “difference between responses from methionine and glycylmethionine supplemented rations” value is recorded as “No significant difference”; the feed efficiencies result is listed as “improved feed efficiencies”; the growth entry is reported as “significant growth increases”. The odor after storage entry in data set [3] was “developed a typical sulfurous odor”.
